# Several values for one entry are separate records, joined by “and”; a condition that tells them apart may be missing. Equal entries are not always repeated.
# Tested on: 454973-116-R2-J3-PDC spheroids, percent test/control viability
# Experiment: Anticancer human tumor 454973-116-R2-J3-PDC patient-derived pancreatic carcinoma cell line growth inhibition [CLK]
# Settings: spheroids with HUVEC and MSC; for viability, T/C: stronger effect = lower value
# Description: A high-throughput screen of multi-cell type tumor spheroids was designed to identify active combinations of […] and targeted small molecules. Complex spheroids include a stromal component modeled by human endothelial cells (HUVEC) and fibroblasts modeled by human mesenchymal stem cells (MSCs). The concentration ranges selected for each drug and investigational agent were based upon clinically achievable concentrations if the clinical Cmax of the agent was known.
# Compounds. The drugs and investigational agents: cirtuvivint (SM08502; NSC835563), CC-671 (NSC850746), vemurafenib (NSC761431), tapotoclax (NSC804041), sotorasib (NSC818433), adagrasib (NSC831453), MRTX-1133 (NSC836407), BAY2416964 (NSC825713), copanlisib (NSC816437), inavolisib (NSC800729), abemaciclib (NSC768073), osimertinib (NSC779217), entinostat (NSC756642), eltanexor (KPT-8602, NSC794443), venetoclax (NSC766270), ceralasertib (NSC777638), bortezomib (NSC756655), olaparib (NSC753686), talazoparib (NSC767125), alisertib (NSC759677), peposertib (NSC802822), gemcitabine (NSC613327), 5-fluorouracil (NSC19893), SN-38 (NSC673596), oxaliplatin (NSC266046), paclitaxel (NSC125973), and doxorubicin (NSC123127), were obtained from the National Cancer Institute (NCI) Developmental Therapeutics Program Chemical Repository. The FDA-approved anticancer drug set is available from the Developmental Therapeutics Program at https://dtp.cancer.gov/organization/dscb/obtaining/available plates.htm. […] The stock solutions were prepared in dimethyl sulfoxide (DMSO, Sigma-Aldrich, St. Louis, MO, cat. D2650), except for the platinum complexes which were prepared in saline (Quality Biological, Gaithersburg, MD, cat. 114-055-101), at 800-fold the tested concentration and stored at -70 degrees C prior to their use. All drugs and investigational agents were tested over a range starting from a high concentration at or near the clinical Cmax and decreasing in half-log increments. If the clinical Cmax for an agent had not been determined, the highest concentration tested was 10 microM.
# Cell Culture. All cells were maintained in an incubator at 37 degrees C and 5% CO2 with 95% humidity. The PDC lines were cultured according to standard operating procedures established by the NCI PDMR. Briefly, all PDCs were thawed and cultured in Matrigel-coated flasks prepared with a working solution of 1X Ham's F-12 nutrient mix, without supplementation (Invitrogen, Waltham, MA, cat. 11765054), 100 U/mL penicillin-streptomycin (Invitrogen, cat. 15140122), and 2.5% Matrigel (Corning Inc., Corning, NY, cat. 354248) for the first three passages. The 947758-054-R-J2-PDC line was cultured in 6B/Colon 1A media, which includes advanced DMEM/F-12 (Thermo Fisher Scientific, cat. 12634028), 10 mM HEPES (Thermo Fisher Scientific, cat. 15630080), 1X GlutaMAX supplement (Thermo Fisher Scientific, cat. 35050061), 0.1 mg/mL primocin (InvivoGen, cat. ant-pm-2), 10% defined fetal bovine serum, heat inactivated (HyClone Laboratories Inc., cat. SH30070.03HI), 1.25 mM N-Acetyl-L-cysteine (Sigma-Aldrich, cat. A9165), 10 mM nicotinamide (Sigma-Aldrich, cat. N0636), 1X B-27 supplement (Thermo Fisher Scientific, cat. 17504044), 1X N-2 supplement (Thermo Fisher Scientific, cat. 17502048), and 10 microM Y-27632 dihydrochloride (Tocris Bioscience, cat. 1254). The 876862-298-R-J1-PDC was cultured in 6E media, which includes all 6B/Colon 1A media components plus 50% L-WRN conditioned media (ATCC, cat. CRL-3276), 50 ng/mL recombinant human EGF recombinant protein (hEGF; Thermo Fisher Scientific, cat. PHG0311), 10 ng/mL recombinant human fibroblast growth factor 10 (hGFG-10; PeproTech, cat. 100-26), 1 ng/mL recombinant human fibroblast growth factor 2 (hFGF-2; PeproTech, cat. 100-18B), and 1 µM prostaglandin E2 (PGE2; Tocris, cat. 2296). The 227483-062-R1-J1-PDC line was cultured in Panc media, containing all 6E components except hFGF-2, with the addition of 500 nM SB-431542 (Selleckchem, cat. S1067) and 10 nM gastrin (Tocris, cat. 3006). […]
# [1] = curve of first compound, second compound 0.0316 µM
# [2] = curve of first compound, second compound 0.1 µM
# [3] = curve of first compound, second compound 0.316 µM
# [4] = curve of first compound, second compound 1 µM
# [5] = curve of first compound, second compound 3.16 µM
# [6] = curve of first compound, second compound 10 µM
# [7] = second compound 0.0316 µM, first compound 0.0316 µM
# [8] = second compound 0.0316 µM, first compound 0.1 µM
# [9] = second compound 0.0316 µM, first compound 0.316 µM
# [10] = second compound 0.0316 µM, first compound 1 µM
# [11] = second compound 0.0316 µM, first compound 3.16 µM
# [12] = second compound 0.0316 µM, first compound 10 µM
# [13] = second compound 0.1 µM, first compound 0.0316 µM
# [14] = second compound 0.1 µM, first compound 0.1 µM
# [15] = second compound 0.1 µM, first compound 0.316 µM
# [16] = second compound 0.1 µM, first compound 1 µM
# [17] = second compound 0.1 µM, first compound 3.16 µM
# [18] = second compound 0.1 µM, first compound 10 µM
# [19] = second compound 0.316 µM, first compound 0.0316 µM
# [20] = second compound 0.316 µM, first compound 0.1 µM
# [21] = second compound 0.316 µM, first compound 0.316 µM
# [22] = second compound 0.316 µM, first compound 1 µM
# [23] = second compound 0.316 µM, first compound 3.16 µM
# [24] = second compound 0.316 µM, first compound 10 µM
# [25] = second compound 1 µM, first compound 0.0316 µM
# [26] = second compound 1 µM, first compound 0.1 µM
# [27] = second compound 1 µM, first compound 0.316 µM
# [28] = second compound 1 µM, first compound 1 µM
# [29] = second compound 1 µM, first compound 3.16 µM
# [30] = second compound 1 µM, first compound 10 µM
# [31] = second compound 3.16 µM, first compound 0.0316 µM
# [32] = second compound 3.16 µM, first compound 0.1 µM
# [33] = second compound 3.16 µM, first compound 0.316 µM
# [34] = second compound 3.16 µM, first compound 1 µM
# [35] = second compound 3.16 µM, first compound 3.16 µM
# [36] = second compound 3.16 µM, first compound 10 µM
# [37] = second compound 10 µM, first compound 0.0316 µM
# [38] = second compound 10 µM, first compound 0.1 µM
# [39] = second compound 10 µM, first compound 0.316 µM
# [40] = second compound 10 µM, first compound 1 µM
# [41] = second compound 10 µM, first compound 3.16 µM
# [42] = second compound 10 µM, first compound 10 µM
# 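Also: spheroids exposed to compounds for 7 days before readout.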
compound,measurement,setting,value
CC(CO)NC(=O)c1cc(-c2ccc(Cl)cc2)nn(-c2cnn(C)c2)c1=O (stereo not drawn) + CNC(=O)c1ccc(Nc2nc(OC3CCCC3)c3c(-c4ccc5nc(C)oc5c4)c[nH]c3n2)c(OC)c1,IC50,[1],> 10 µM
same,IC50,[2],> 10 µM
same,IC50,[3],< 0.0316 µM
same,IC50,[4],< 0.0316 µM
same,IC50,[5],< 0.0316 µM
same,IC50,[6],< 0.0316 µM
same,"viability, T/C",[7],105%
same,"viability, T/C",[8],96.5%
same,"viability, T/C",[9],111%
same,"viability, T/C",[10],112%
same,"viability, T/C",[11],100%
same,"viability, T/C",[12],77%
same,"viability, T/C",[13],105%
same,"viability, T/C",[14],105%
same,"viability, T/C",[15],96.2%
same,"viability, T/C",[16],99.7%
same,"viability, T/C",[17],101%
same,"viability, T/C",[18],80.8%
same,"viability, T/C",[19],46%
same,"viability, T/C",[20],41.3%
same,"viability, T/C",[21],47.2%
same,"viability, T/C",[22],37.1%
same,"viability, T/C",[23],45.2%
same,"viability, T/C",[24],43.5%
same,"viability, T/C",[25],33.7%
same,"viability, T/C",[26],32.9%
same,"viability, T/C",[27],32.8%
same,"viability, T/C",[28],31.6%
same,"viability, T/C",[29],30.8%
same,"viability, T/C",[30],32.1%
same,"viability, T/C",[31],24.5%
same,"viability, T/C",[32],31.7%
same,"viability, T/C",[33],30.2%
same,"viability, T/C",[34],30.5%
same,"viability, T/C",[35],34.9%
same,"viability, T/C",[36],29%
same,"viability, T/C",[37],30.3%
same,"viability, T/C",[38],31.7%
same,"viability, T/C",[39],31.8%
same,"viability, T/C",[40],27.6%
same,"viability, T/C",[41],29.3%
same,"viability, T/C",[42],24.7%
C=CC(=O)N1CCN(c2nc(=O)n(-c3c(C)ccnc3C(C)C)c3nc(-c4c(O)cccc4F)c(F)cc23)C(C)C1 (stereo not drawn),"viability, T/C",compound 0.0316 µM,107% and 99.3%
same,"viability, T/C",compound 0.1 µM,107% and 106%
same,"viability, T/C",compound 0.316 µM,107% and 105%
same,"viability, T/C",compound 1 µM,110% and 97.4%
same,"viability, T/C",compound 3.16 µM,124% and 116%
same,"viability, T/C",compound 10 µM,124% and 118%
same,IC50,curve of compound,> 10 µM
CC(CO)NC(=O)c1cc(-c2ccc(Cl)cc2)nn(-c2cnn(C)c2)c1=O (stereo not drawn),"viability, T/C",compound 0.0316 µM,112% and 99.4%
same,"viability, T/C",compound 0.1 µM,106% and 92.4%
same,"viability, T/C",compound 0.316 µM,114% and 111%
same,"viability, T/C",compound 1 µM,99.3% and 107%
same,"viability, T/C",compound 3.16 µM,103% and 109%
same,"viability, T/C",compound 10 µM,71.3% and 79%
same,IC50,curve of compound,> 10 µM
CC(CO)NC(=O)c1cc(-c2ccc(Cl)cc2)nn(-c2cnn(C)c2)c1=O (stereo not drawn) + CN1CCN(c2cc(C(=O)Nc3cc4cc(-c5cnn(C)c5)ccc4cn3)ccn2)CC1,IC50,[1],> 10 µM
same,IC50,[2],> 10 µM
same,IC50,[3],< 0.0316 µM
same,IC50,[4],< 0.0316 µM
same,IC50,[5],< 0.0316 µM
same,IC50,[6],< 0.0316 µM
same,"viability, T/C",[7],97.5%
same,"viability, T/C",[8],97.8%
same,"viability, T/C",[9],95.6%
same,"viability, T/C",[10],105%
same,"viability, T/C",[11],96.5%
same,"viability, T/C",[12],68.4%
same,"viability, T/C",[13],76.9%
same,"viability, T/C",[14],88.5%
same,"viability, T/C",[15],80.6%
same,"viability, T/C",[16],86%
same,"viability, T/C",[17],82%
same,"viability, T/C",[18],54.2%
same,"viability, T/C",[19],1.94%
same,"viability, T/C",[20],2.45%
same,"viability, T/C",[21],2.27%
same,"viability, T/C",[22],2.92%
same,"viability, T/C",[23],2.59%
same,"viability, T/C",[24],4.2%
same,"viability, T/C",[25],0.11%
same,"viability, T/C",[26],0.93%
same,"viability, T/C",[27],2.47%
same,"viability, T/C",[28],0.11%
same,"viability, T/C",[29],0.09%
same,"viability, T/C",[30],0.42%
same,"viability, T/C",[31],0.17%
same,"viability, T/C",[32],0.17%
same,"viability, T/C",[33],0.24%
same,"viability, T/C",[34],0.18%
same,"viability, T/C",[35],0.16%
same,"viability, T/C",[36],0.13%
same,"viability, T/C",[37],1.96%
same,"viability, T/C",[38],0.22%
same,"viability, T/C",[39],0.37%
same,"viability, T/C",[40],2.01%
same,"viability, T/C",[41],0.24%
same,"viability, T/C",[42],0.36%

# From PubChem BioAssay AID2060618 (Molecular Pharmacology Branch, DTP, NCI, 2025)
